According to patent publication US20260294906A1, “TREATING PSORIASIS USING A SMALL MOLECULE INHIBITOR OF TUMOR NECROSIS FACTOR ALPHA” (SANOFI, priority 2023, published 2026):
“Also recorded” adds a separate entry of the source.

Key:
Format in all cases: in vivo, human
[1] = system: participants with mild to moderate psoriasis; assay: Liver function laboratory tests in the clinical study
Description: (§1) Two study interventions were used, Compound 1 and placebo. The Compound 1 intervention comprised 4× tablets of Compound 1 50 mg twice daily, i.e. 200 mg BID, for 4 weeks. The placebo intervention was 4× tablets of placebo twice daily for 4 weeks. Tablets were administered orally.
Laboratory tests (from at least 10 hours under fasting conditions for blood samples) included: • Hematology: red blood cell count, hematocrit, hemoglobin, white blood cell count with differential count (neutrophils, eosinophils, basophils, monocytes, and lymphocytes), platelets. • Biochemistry: • Plasma/serum electrolytes: sodium, potassium, chloride, calcium, • Liver function: AST, ALT, alkaline phosphatase, GGT, total and conjugated bilirubin, • Renal function: urea, creatinine, • Metabolism: glucose, albumin, total proteins, total cholesterol, triglycerides, • Potential muscle toxicity: CK, • International normalized ratio (INR), and activated partial thromboplastin time (aPTT), • C-reactive protein; the CRP levels were evaluated by an independent investigator who is not involved in the study to protect the blinding of the study. CRP values were provided by the independent investigator to the investigator in case of medical need. • Procalcitonin at screening, week 2 and EOS. • QuantiFERON-TB Gold (QFT) test.
(§2) For AESI in this study, the Sponsor was to be informed immediately (i.e., within 24 hours), as per SAE notification guidelines, even if a seriousness criterion was not met, using the corresponding screens in the eCRF. • ALT increased >3×ULN. • QT prolongation (QTcF≥500 milli seconds [ms]) and/or a delta QTc change from baseline>60 ms (12-lead ECG). In the event of prolongation of QTc interval (automatic measurement)≥500 ms, confirmed by a manual reading by the Investigator or a physician delegated by the Investigator using the Fridericia formula for correcting QT, the participant was placed under supervision in a specialized setting. Investigational medicinal product administration was stopped, and appropriate blood samples collected. Subsequent ECG monitoring of the participant was then performed on a regular and clinically responsible basis until the QTc interval returned to a safe value as determined by the Investigator in agreement with the Sponsor. • Photosensitivity (Grade 2 and above AE due to sun exposure). • Pregnancy. • Symptomatic overdose. • An overdose (accidental or intentional) with the IMP is an event suspected by the Investigator or spontaneously notified by the participant (not based on systematic pills count) and defined as at least twice the intended dose within the intended therapeutic interval, adjusted according to the tested drug.
Once the participant was included in the clinical trial, the following laboratory abnormalities were monitored, documented, and managed: • Neutropenia, characterized as neutrophils <1500/mm^3 or according to ethnic group (recorded as an AE only if at least 1 of the criteria listed above was met) • Thrombocytopenia, characterized as platelets <100,000/mm^3 confirmed with or without bleeding (recorded as an AE only if at least 1 of the criteria listed above was met) • Increase of ALT. Patients were monitored where 3 ULN<ALT≤5 ULN and total bilirubin was ≤2 ULN. […]

[2] = system: participants with mild to moderate psoriasis; assay: 12-lead ECG (QTcF) in the clinical study
Description: as §1
The following electrocardiogram data were recorded: • Standard 12-lead ECGs (safety ECGs) were recorded after at least 10 minutes in supine position using an electrocardiographic device. The electrodes were positioned at the same place for each ECG recording throughout the study (e.g., attachment sites of the leads were visualized on a transparent paper). • Triplicate ECGs were recorded within 5 minutes with at least 1 min between 2 replicates for all ECG. • Each ECG consisted of a 10-second recording of the 12 leads simultaneously, leading to: • A single 12-lead ECG (50 mm/s, 10 mm/mV) printout with heart rate, PR, QRS, QT, QTc automatic correction evaluation (by the ECG device), including date, time, and number of the participant, signature of the research physician, and at least 3 complexes for each lead. The Investigator's medical opinion and automatic values were recorded in the eCRF. This printout was retained at the site. A second printout was performed also, if needed. • A digital storage that enables eventual further reading by an ECG central laboratory: each digital file will be identified by theoretical time (day and time Dxx Txx Hxx), real date and real time (recorder time), Sponsor study code, participant number (i.e., 3 digits), and site and country numbers, if relevant. The digital recording, data storage, and transmission (whenever requested) need to comply with all applicable regulatory requirements (i.e., FDA 21 code of federal regulations [CFR], Part 11).
as §2

[3] = Plasma levels of Compound 1 in the study population (pharmacokinetics); conditions: 200 mg BID oral, fed
Description: The primary objective of the study was to assess the safety, tolerability, and clinical efficacy of Compound 1 at 200 mg BID via oral administration. Also evaluated was the clinical effect of Compound 1 as compared to placebo on the percent change in PASI and TLS scores from baseline to week 2 and week 4. The percent change in PASI score from baseline to week 4 was determined. TLS score was also assessed over the same time period. Also assessed was the effect of Compound 1 on biomarkers of psoriasis. Blood samples collected at predetermined time points were processed to quantify serum levels of biomarkers, including interleukin (IL)-17A, IL-17F, and IL-22 by high sensitivity methods. IL-17A, IL-17F and IL-22 are the main cytokines released by Th17 cells. Plasma levels of Compound 1 were measured to assess pharmacokinetics in the study population.
as §1
The interventions were used in two arms of the study. Arm 1 was the experimental arm and it involved participants receiving 200 mg of Compound BID for 4 weeks under fed conditions. […]

CN1C(=O)c2cccc(OC(F)F)c2[C@H]2C[C@@H]1c1nc3ccc(-c4cnc(C5(N)CCC5)nc4)cc3n12 [Compound 1, (7R,14R)-11-[2-(1-aminocyclobutyl)pyrimidin-5-yl]-1-(difluoromethoxy)-6-methyl-6,7-dihydro-7,14-methanobenzimidazo[1,2-b][2,5]benzodiazocin-5(14H)-one]
potentially clinically significant abnormality (PCSA) for ALT increase ([1]; 200 mg BID): no PCSA for ALT increase
total bilirubin, first participant ([1]; 200 mg BID, Day 8, baseline 1.5 ULN): 1.67 ULN
total bilirubin, second participant ([1]; 200 mg BID, day not given, baseline 1.3 ULN): 1.56 ULN
Number of participants with total bilirubin increased >1.5 ULN ([1]; 200 mg BID, one single occasion): two
liver function tests / impact on liver parameters (in words) ([1]; 4-week clinical trial): no signal for risks on liver function tests; also recorded: neither was any significant impact on cardiac parameters (e.g., QTcF interval) or liver parameters (e.g., AST, ALT, or bilirubin levels) observed
QTcF change from baseline >60 msec and/or QTcF>480 msec ([2]; 200 mg BID): no QTcF change from baseline >60 msec and/or QTcF>480 msec
QTcF change from baseline, one participant ([2]; 200 mg BID, Day 8, baseline 426 msec): 33 ms
Number of participants with QTcF>450 msec ([2]; 200 mg BID, one single occasion on Day 8): One
QTcF, one participant ([2]; 200 mg BID, one single occasion on Day 8, baseline 426 msec): 459 ms
risk of QTc prolongation / impact on cardiac parameters (in words) ([2]; 4-week clinical trial): No indication for risks on QTc prolongation was observed; also recorded: neither was any significant impact on cardiac parameters (e.g., QTcF interval)
Mean pre-dose plasma levels / steady state (in words) ([3]; Day 8 through Day 29): steady state was achieved within the first week and maintained until the end of the treatment
Mean pre-dose and post-dose plasma concentrations (in words) ([3]; compared with previous study in healthy participants): consistent with analogous values observed at the same dose in a previous study in healthy participants; also recorded: consistent with pharmacokinetic data previously obtained in healthy participants
